According to patent US9394352B2, “Immunogenic POTE peptides and methods of use” (The United States of America, as represented by the …, priority 2010, dated 2016):

Legend:
[1] = tested on: IFN-γ secreting spleen cells; test: ex vivo IFN-γ ELISPOT assay on splenocytes of peptide-immunized AAD mice; format: in vivo; conditions: AAD mice immunized s.c., splenocytes pooled from three mice two weeks after boost
Experimental: (§1) FIGS. 3A and 3B are graphs showing immunogenicity of the wild type and enhanced POTE 252 epitopes in AAD mice. AAD mice were immunized subcutaneously with a mixture of peptide and cytokines in adjuvant as described in Example 1. (FIG. 3A) Two weeks after the second boost, splenocytes pooled from three mice were restimulated with splenocytes of naïve AAD mice pulsed with 1.0 μM of each peptide at different effector to target (E/T) ratios. Cells were cultured in anti-mouse IFN-γ antibody coated ELISPOT™ plates. After overnight culture, biotinylated anti-mouse IFN-γ antibodies were added to each well. ELISPOT™ substrates were added to develop the color and spots were counted by an ELISPOT™ reader (AID ELISPOT™ reader system). Figures show numbers of spots per million cells. (FIG. 3B) CTL cross-reactivity on each peptide. Two weeks after the second boost, pooled spleen cells from three mice were restimulated with irradiated splenocytes pulsed with 1.0 μM of peptide for 7 days. In a 4-hour ^51Cr release assay, CIR.AAD cells were pulsed with 1.0 μM of peptide and labeled with ^51Cr. After washing three times, target cells were mixed with different numbers of effector cells and then cultured for 4 hours before harvesting.
(§2) FIGS. 4A-4D are graphs showing immunogenicity of the wild type and enhanced POTE 553 epitopes in AAD mice. AAD mice were immunized subcutaneously with a mixture of peptide and cytokines in adjuvant. (FIGS. 4A and 4B) Two weeks after the second boost, splenocytes pooled from three mice were restimulated with splenocytes of naïve AAD mice pulsed with 10 nM to 1.0 μM of each peptide at different E/T ratios. Cells were cultured in anti-mouse IFN-γ antibody coated ELISPOT™ plates. After overnight culture, biotinylated anti-mouse IFN-γ antibodies were added to each well. ELISPOT™ substrates were added to develop color and spots were counted by an ELISPOT™ reader (AID ELISPOT™ reader system). Figures show numbers of spots per million cells. (FIGS. 4C and 4D) CTL cross-reactivity on each peptide. Two weeks after the second boost, pooled spleen cells from three mice were restimulated with irradiated splenocytes pulsed with 1.0 μM of peptide for 7 days. In a 4-hour ^51Cr release assay, CIR.AAD cells were pulsed with 1.0 μM of peptide and labeled with ^51Cr. After washing three times, target cells were mixed with different numbers of effector cells and then cultured for 4 hours before harvesting.
(§3) FIGS. 5A and 5B are graphs showing immunogenicity of the POTE 272 epitope in AAD mice. AAD mice were immunized subcutaneously with a mixture of peptide and cytokines in adjuvant. (FIG. 5A) Two weeks after the second boost, splenocytes pooled from three mice were restimulated with splenocytes of naïve AAD mice pulsed with 1.0 μM POTE 272 peptide at different E/T ratios. Cells were cultured in anti-mouse IFN-γ antibody coated ELISPOT™ plates. After overnight culture, biotinylated anti-mouse IFN-γ antibodies were added in each well. ELISPOT™ substrates were added to develop color and spots were counted by an ELISPOT™ reader (AID ELISPOT™ reader system). Figures show numbers of spots per million cells. (FIG. 5B) CTL reactivity on POTE 272 peptide. Two weeks after the second boost, pooled spleen cells from three mice were restimulated with irradiated splenocytes pulsed with 1.0 μM POTE 272 peptide for 7 days. In a 4-hour ^51Cr release assay, CIR.AAD cells were pulsed with 1.0 μM POTE 272 peptide and labeled with ^51Cr. After washing three times, target cells were mixed with different numbers of effector cells and then cultured for 4 hours before harvesting.
(§4) FIGS. 6A and 6B are graphs showing immunogenicity of the wild type and enhanced POTE 323 epitopes in AAD mice. AAD mice were immunized subcutaneously with a mixture of peptide and cytokines in adjuvant. (FIG. 6A) Two weeks after the second boost, splenocytes pooled from three mice were restimulated with splenocytes of naïve AAD mice pulsed with 1.0 μM of each peptide at different E/T ratios. […]

[2] = tested on: C1R.AAD cells pulsed with peptide; test: 4-hour 51Cr release CTL assay after one week in vitro stimulation; format: cell-based, human; conditions: CTLs from immunized AAD mice, restimulated 7 days with 1.0 μM peptide; targets pulsed with 1.0 μM peptide
Experimental: as §1, §2, §3, §4

Sequence: KLMAKALLL [POTE 252-260, unmodified 9-mer peptide, residues 252-260 of human POTE]
- IFN-γ response (ELISPOT spots) on stimulation with the immunizing peptide [1]: induced a significant number of IFN-γ spots
- CTL lysis of peptide-pulsed target cells [2]: lysed target cells pulsed with the wild-type POTE 252 as well as POTE 252-9V
